The text below walks through data of patent US8969336B2, “Diamino heterocyclic carboxamide compound” (Astellas Pharma Inc., priority 2009, dated 2015).

What is called IC50 is the concentration that inhibits the measured activity by half. Read a low IC50 as greater potency.

Experiment [1] relates to EML4-ALK fusion protein v1 expressing 3T3 cells. Nature of the experiment: Antitumor test (in vivo) on EML4-ALK fusion protein v1 expressing 3T3 cells. The note with it: oral 10 mg/kg once a day for 5 days, Balb/c nude mice, EML4-ALK v1 3T3 tumor; for rate of regression (tumor volume): values marked (regression). From the text:
Expression plasmid EML4-ALKv1/pMXS in which cDNA for EML4-ALK fusion protein v1 was integrated was trasfected into 3T3 fibroblast cells by the phosphate calcium method to thereby establish EML4-ALK fusion protein v1 expressing 3T3 cells. 3×10^6 cells of EML4-ALK fusion protein v1 expressing 3T3 cells suspended in PBS were inoculated subcutaneously by injection to the back of 5 weeks old male Balb/c nude mice (Charles River Japan, Inc.). After 7 days of the inoculation, the administration of test compound was initiated. The test was conducted in the solvent group and the compound group, 4 animals per group. The test compound was suspended in a solvent composed of 0.5% methylcellulose and administered orally at a dose of 10 mg/kg. Administrations were performed once a day for 5 days, and body weight and tumor size were measured every other day. Tumor volume was calculated using the following formula. [Tumor volume(mm^3)]=[Tumor major axis(mm)]×[tumor minor axis(mm)]^2×0.5
When regression of tumor volume is induced from the day of starting administration, the tumor volume on the day of starting administration and the state in which the tumor disappeared were assumed to be 0% regression and 100% regression, respectively, and the rate of regression of the test compound was calculated.

In experiment [2] the test system is BA/F3 cells expressing EML4-ALK fusion protein v1. Nature of the experiment: Growth inhibitory activity against EML4-ALK fusion protein-dependent cells. In kind it is cell-based, mouse. The note with it: growth of EML4-ALK fusion protein v1-expressing BA/F3 cells, cultured 2 days. How it is done:
EML4-ALK fusion protein v1-expressing BA/F3 cells can grow in the absence of IL-3. In other words, they are cells that EML4-ALK fusion protein v1-dependently grow.
In a 96-well plate (Iwaki), BA/F3 cells expressing EML4-ALK fusion protein v1 were seeded at 500 cells per well in RPMI1640 medium (Invitrogen) containing 10% fetal bovine serum, followed by addition of a test compound (final concentration: 10 μM to 0.1 nM). As a negative control, DMSO used as a solvent of the test compound was added. Then, the cells were cultured under 5% CO2 at 37° C. for 2 days. A cell counting reagent (AlmarBlue; Biosource) was added, and the cells were cultured for 150 minutes, followed by measurement of fluorescence intensity with a […] (Safire; Tecan) in accordance with instructions attached to the reagent.

Experiment [3] concerns the target EML4-ALK fusion protein v1 (Homo sapiens (Human), UniProt Q9UM73). Nature of the experiment: Inhibitory activity against the kinase activity of EML4-ALK fusion protein (HTRF KinEASE-TK). In kind it is biochemical. The note with it: ATP 100 μM, reaction 1 hour. From the text: A recombinant retrovirus was created from expression plasmid FLAG-EML4-ALKv1/pMX-iresCD8 in which cDNA for EML4-ALK fusion protein v1 was integrated, and injected into mouse lymphoid cell line BA/F3 cells. Using a magnetic bead reagent for cell separation and a purification column (anti-CD8 monoclonal antibody immobilized on magnetic beads and a MiniMACS purification column; both are products of Miltenyi Biotec Inc.), cell surface CD8-expressing cells were purified to establish EML4-ALK fusion protein v1-expressing BA/F3 cells. From the cells, EML4-ALK fusion protein v1 was purified and subjected to kinase activity evaluation. EML4-ALK fusion protein v1 was investigated for its phosphorylation activity toward a peptide substrate by using a kinase activity detection kit (HTRF KinEASE-TK; Cisbio Inc.). […] The ATP concentration used was 100 μM.
(In general: In TR-FRET formats the signal depends on donor and acceptor labels being close together.)

Sequence of EML4-ALK fusion protein v1 (Q9UM73 other isoform, or with tags, fused parts or gaps): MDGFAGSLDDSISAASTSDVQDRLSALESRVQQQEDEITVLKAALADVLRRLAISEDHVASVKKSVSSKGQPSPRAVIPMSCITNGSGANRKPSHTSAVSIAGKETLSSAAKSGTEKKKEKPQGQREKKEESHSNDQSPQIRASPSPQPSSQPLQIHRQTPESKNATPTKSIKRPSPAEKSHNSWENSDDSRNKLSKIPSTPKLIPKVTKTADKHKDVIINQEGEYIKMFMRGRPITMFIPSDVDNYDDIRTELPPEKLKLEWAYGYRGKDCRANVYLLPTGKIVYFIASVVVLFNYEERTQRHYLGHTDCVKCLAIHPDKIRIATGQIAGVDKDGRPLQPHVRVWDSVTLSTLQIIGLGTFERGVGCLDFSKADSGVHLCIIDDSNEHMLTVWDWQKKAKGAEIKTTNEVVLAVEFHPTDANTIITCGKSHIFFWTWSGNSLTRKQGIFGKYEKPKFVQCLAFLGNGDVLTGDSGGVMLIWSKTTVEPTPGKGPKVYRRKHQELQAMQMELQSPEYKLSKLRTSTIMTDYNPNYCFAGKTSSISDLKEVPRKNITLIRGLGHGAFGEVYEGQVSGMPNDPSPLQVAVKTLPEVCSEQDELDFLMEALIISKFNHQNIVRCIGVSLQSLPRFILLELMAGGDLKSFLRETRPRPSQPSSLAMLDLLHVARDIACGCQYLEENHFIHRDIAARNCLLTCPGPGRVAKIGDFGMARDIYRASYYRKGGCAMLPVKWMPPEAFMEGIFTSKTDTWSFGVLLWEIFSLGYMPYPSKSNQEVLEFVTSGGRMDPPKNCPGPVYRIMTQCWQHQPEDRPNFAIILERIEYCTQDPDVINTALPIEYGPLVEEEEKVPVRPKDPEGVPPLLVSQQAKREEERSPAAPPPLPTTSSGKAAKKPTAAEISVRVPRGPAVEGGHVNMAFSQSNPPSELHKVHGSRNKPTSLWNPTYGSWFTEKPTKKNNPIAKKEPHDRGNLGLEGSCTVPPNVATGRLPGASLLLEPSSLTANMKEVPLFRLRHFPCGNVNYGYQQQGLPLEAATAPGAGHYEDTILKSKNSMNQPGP

Consider `COc1cc(Nc2nc(NC3CCOCC3)c(C(C)C)nc2C(N)=O)ccc1N1CCN(C)CC1` [Example 553], for which the “inhibition rate (tumor volume)” value in experiment [1] was 63%.

Regarding `CCc1nc(C(N)=O)c(Nc2ccc(N3CCC(N4CCN(C)CC4)CC3)c(C)c2)nc1N[C@H]1CC[C@](C)(O)CC1` [Example 466], the IC50 came to 9.3 nM in experiment [2] (Mus musculus, BaF3, 48 h) and 0.93 nM in experiment [3]. Further, the “rate of regression (tumor volume)” value in experiment [1] is 54 (regression) %.

Turning to `CC(C)c1nc(C(N)=O)c(Nc2ccc(N3CCN(C)CC3)cc2)nc1N[C@H]1CC[C@H](O)CC1` [Example 343, 5-[(trans-4-hydroxycyclohexyl)amino]-6-isopropyl-3-{[4-(4-methylpiperazin-1-yl)phenyl]amino}pyrazine-2-carboxamide], the IC50 in experiment [2] (Mus musculus, BaF3, 48 h) was determined as 11 nM; in experiment [3] it was 2.1 nM.

On to `CCc1nc(C(N)=O)c(Nc2ccc(N3CCC(N4CCN(C)CC4)CC3)c(C)c2)nc1NC1CCC(O)(CC)CC1` (stereo not drawn) [Example 491], for which the values for the half-inhibitory concentration (IC50) in experiment [2] and in experiment [3] were 16 nM and 2.8 nM, respectively.

In experiment [2] (Mus musculus, BaF3, 48 h), `CCc1nc(C(N)=O)c(Nc2ccc3cnn(C)c3c2)nc1N[C@H]1CC[C@H](O)CC1` [Example 328] gave an IC50 of 76 nM.

As for `CCc1nc(C(N)=O)c(Nc2ccc(N3CCC(N4CCN(C)CC4)CC3)c(C)c2)nc1NC1CCC(O)(C(C)C)CC1` (stereo not drawn) [Example 494], the IC50 in experiment [2] was 42 nM; in experiment [3] it was 4.1 nM.

`CCc1nc(C(N)=O)c(Nc2ccc(N3CCC(N4CCN(C)CC4)CC3)c(OC)c2)nc1NC1CCOCC1` [Example 547] showed an IC50 in experiment [2] (Mus musculus, BaF3, 48 h) of 5.7 nM.

Consider `CCc1nc(C(N)=O)c(Nc2ccc(N3CCC(N4CCN(C)CC4)CC3)c(C)c2)nc1NC1CCC(O)(C(C)C)CC1` (stereo not drawn) [Example 493], for which the IC50 is 19 nM in experiment [2] and 2.6 nM in experiment [3].

Regarding `CCc1nc(C(N)=O)c(Nc2cccc(S(C)(=O)=O)c2)nc1N[C@H]1CC[C@H](O)CC1` [Example 86], the IC50 in experiment [2] (Mus musculus, BaF3, 48 h) is 68 nM; in experiment [3], 17 nM.

For the molecule `CCc1nc(C(N)=O)c(Nc2ccc(OC)c(N3CCN(C)CC3)c2)nc1N[C@H]1CC[C@H](O)CC1` [Example 383], the IC50 in experiment [2] (Mus musculus, BaF3, 48 h) worked out at 5.9 nM; in experiment [3], 0.23 nM.

Turning to `CCc1nc(C(N)=O)c(Nc2ccc(N3CCC(N(C)C)C3)c(C(F)(F)F)c2)nc1N[C@H]1CC[C@H](O)CC1` (stereo partly drawn) [Example 406], the IC50 in experiment [2] (Mus musculus, BaF3, 48 h) is 9.8 nM; in experiment [3], 0.34 nM.

Take `Cc1cc(Nc2nc(N[C@H]3CC[C@H](O)CC3)c(Cl)nc2C(N)=O)ccc1N1CCC(N2CCN(C)CC2)CC1` [Example 538]: the IC50 in experiment [2] (Mus musculus, BaF3, 48 h) was determined as 7.7 nM; in experiment [3] it was 2.3 nM.

Take `CC(C)c1nc(C(N)=O)c(Nc2ccc(N3CCN(C)CC3)cc2)nc1NC1CCOCC1` [Example 554]: the IC50 is 14 nM in experiment [2] (Mus musculus, BaF3, 48 h) and 4.5 nM in experiment [3].

`CCc1nc(C(N)=O)c(Nc2ccc(N3CCC(N4CCN(C)CC4)CC3)cc2)nc1NC1CCOCC1` [Example 546]: the IC50 in experiment [2] (Mus musculus, BaF3, 48 h) amounted to 23 nM; in experiment [3], 7.8 nM. For the same molecule, the “inhibition rate (tumor volume)” value in experiment [1] is recorded as 79%.

Consider `CC(C)c1nc(C(N)=O)c(Nc2ccc(N3CCC(N4CCN(C)CC4)CC3)c(C(F)(F)F)c2)nc1N[C@H]1CC[C@H](O)CC1` [Example 388], for which the IC50 worked out at 4.1 nM in experiment [2] (Mus musculus, BaF3, 48 h) and 0.17 nM in experiment [3].

As to `CCOc1cc(Nc2nc(N[C@H]3CC[C@H](O)CC3)c(CC)nc2C(N)=O)ccc1N1CCC(N2CCN(C)CC2)CC1` [Example 459], the IC50 in experiment [2] (Mus musculus, BaF3, 48 h) was 8.1 nM; in experiment [3], 0.26 nM.

Turning to `CCc1nc(C(N)=O)c(Nc2ccc(N3CCC(N4CCN(C)CC4)CC3)c(C)c2)nc1N[C@H]1CC[C@H](O)CC1` [Example 378], the IC50 was 6.1 nM in experiment [2] (Mus musculus, BaF3, 48 h) and 0.26 nM in experiment [3]. In experiment [1], the “inhibition rate (tumor volume)” value is given as 92%.

In the case of `CCc1nc(C(N)=O)c(Nc2ccc(N3CCC(N4CCN(C)CC4)CC3)c(C)c2)nc1NC1CCC(O)(CC)CC1` (stereo not drawn) [Example 490], the IC50 was found to be 18 nM in experiment [2] (Mus musculus, BaF3, 48 h) and 3.1 nM in experiment [3].

On to `CCc1nc(C(N)=O)c(Nc2ccc(N3CCC(N4CCN(C)CC4)CC3)c(C)c2)nc1NC1CCOCC1` [Example 512], for which the IC50 in experiment [2] (Mus musculus, BaF3, 48 h) amounted to 19 nM; in experiment [3], 1.5 nM.

Consider `CCc1nc(C(N)=O)c(Nc2ccc(N3CCN(C(C)C)CC3)c(C)c2)nc1N[C@H]1CC[C@H](O)CC1` [Example 426], for which the IC50 in experiment [2] (Mus musculus, BaF3, 48 h) is 11 nM; in experiment [3] it was 0.49 nM. The “inhibition rate (tumor volume)” value in experiment [1] amounted to 81%.

Take `CCc1nc(C(N)=O)c(Nc2ccc(N3CCN(C4CCN(C)CC4)CC3)c(C)c2)nc1NC1CCOCC1` [Example 558]: the half-inhibitory concentration (IC50) in experiment [2] (Mus musculus, BaF3, 48 h) came to 16 nM; in experiment [3], 2.2 nM. Besides, in experiment [1], the “rate of regression (tumor volume)” value is listed as 37 (regression) %.

On to `CCc1nc(C(N)=O)c(Nc2ccc(N3CCN(CC4CC4)CC3)c(C(F)(F)F)c2)nc1N[C@H]1CC[C@H](O)CC1` [Example 399], for which the IC50 in experiment [2] (Mus musculus, BaF3, 48 h) came out at 11 nM; in experiment [3], 0.94 nM.

`CCc1nc(C(N)=O)c(Nc2ccc(N3CCN(C)CC3)c(F)c2)nc1NC1CCOCC1` [Example 550]: the IC50 in experiment [2] (Mus musculus, BaF3, 48 h) was 39 nM; in experiment [3], 11 nM.

`CCc1nc(C(N)=O)c(Nc2ccc(N3CCN(C)CC3)c(C)c2)nc1N[C@H]1CC[C@@](C)(O)CC1` [Example 391]: the IC50 was 6.5 nM in experiment [2] (Mus musculus, BaF3, 48 h) and 0.22 nM in experiment [3].

As to `CCc1nc(C(N)=O)c(Nc2ccc(N3CCN(C)CC3)c(OC)c2)nc1N[C@H]1CC[C@H](O)CC1` [Example 355], the half-maximal inhibitory concentration (IC50) in experiment [2] (Mus musculus, BaF3, 48 h) turned out to be 9.2 nM; in experiment [3], 0.33 nM.

Take `CCc1nc(C(N)=O)c(Nc2ccc(N3CCC(N4CCN(C)CC4)CC3)cc2)nc1N[C@H]1CC[C@H](O)CC1` [Example 341]: the IC50 in experiment [2] (Mus musculus, BaF3, 48 h) was found to be 11 nM; in experiment [3], 2.8 nM.

Turning to `CCc1nc(C(N)=O)c(Nc2ccc(N3CCC(N4CCN(C)CC4)CC3)c(C(F)(F)F)c2)nc1N[C@H]1CC[C@H](O)CC1` [Example 370], the IC50 in experiment [2] (Mus musculus, BaF3, 48 h) stood at 4.9 nM; in experiment [3] it was 0.65 nM. Also, in experiment [1], the “inhibition rate (tumor volume)” value turned out to be 81%.

As for `CCc1nc(C(N)=O)c(Nc2ccc(N3CCN(C)CC3)cc2)nc1N[C@H]1CC[C@H](O)CC1` [Example 325], the 50% inhibitory concentration (IC50) stood at 20 nM in experiment [2] (Mus musculus, BaF3, 48 h) and 5.3 nM in experiment [3].

`CCc1nc(C(N)=O)c(Nc2ccc(N3CCC(N4CCN(C)CC4)CC3)c(C)c2)nc1N[C@H]1CC[C@@](C)(O)CC1` [Example 392]: the IC50 in experiment [2] (Mus musculus, BaF3, 48 h) stood at 6.3 nM; in experiment [3], 0.21 nM. Moreover, in experiment [1], the “rate of regression (tumor volume)” value is given as 28 (regression) %.

For the molecule `CCc1nc(C(N)=O)c(Nc2ccc(N3CCN(C)CC3)c(C)c2)nc1N[C@H]1CC[C@H](O)CC1` [Example 377], the IC50 amounted to 6.9 nM in experiment [2] (Mus musculus, BaF3, 48 h) and 0.24 nM in experiment [3].

As to `CCc1nc(C(N)=O)c(Nc2ccc(N3CCC(N4CCN(C)CC4)CC3)c(OC)c2)nc1N[C@H]1CC[C@H](O)CC1` [Example 340], the IC50 was 9.5 nM in experiment [2] (Mus musculus, BaF3, 48 h) and 0.37 nM in experiment [3].

In the case of `CCc1nc(C(N)=O)c(Nc2ccc(N3CCN(C)CC3)cc2)nc1NC1CCOCC1` [Example 545], the IC50 in experiment [2] (Mus musculus, BaF3, 48 h) was determined as 25 nM; in experiment [3], 11 nM.

Regarding `CCc1nc(C(N)=O)c(Nc2ccc(N3CCN(C)CC3)c(C(F)(F)F)c2)nc1N[C@H]1CC[C@H](O)CC1` [Example 354], the IC50 in experiment [2] (Mus musculus, BaF3, 48 h) is 8.6 nM; in experiment [3] it was 0.77 nM.

For `CCc1nc(C(N)=O)c(Nc2ccc(N3CCC(N4CCN(C)CC4)CC3)cc2OC)nc1N[C@H]1CC[C@H](O)CC1` [Example 284], the IC50 came to 85 nM in experiment [2] (Mus musculus, BaF3, 48 h) and 8.9 nM in experiment [3].
